The values that follow come from patent US6482771B2, “Synergistic herbicidal methods and compositions” (BASF Aktiengesellschaft, priority 2000, dated 2002).

One test deals with Hordeum leporinum. The test is described as follows: Field plot evaluation of biomass reduction and seedhead suppression in Hordeum leporinum (wild barley), post-emergence in an imidazolinone-tolerant crop. It counts as in vivo. As to conditions: 28 g/ha; for Seed Head Red. Observed: seedhead count vs untreated plot; for Bio. Red. Observed: visual rating vs untreated plots, average of 4 replicates. As for the experimental part: (§1) In the following examples, synergism is determined by the Colby (Colby, S. R., Weeds, 1967(15), p. 20-22) method, i.e. the expected (or predicted) response of the combination is calculated by taking the product of the observed response for each individual component of the combination when applied alone divided by 100 and subtracting this value from the sum of the observed response for each component when applied alone. Synergism of the combination is then determined by comparing the observed response of the combination to the expected (or predicted) response as calculated from the observed responses of each individual component alone. If the observed response of the combination is greater than the expected (or predicted) response then the combination is said to be synergistic.
All trials employ standard accepted weed science procedures. Applications are made to 2×10M plots with a propane gas-powered small plot boomspray applicator. Test design is a modified randomized complete block design with four replications. Applications are made at 2-6 weeks after the imidazolinone-tolerant crop is sown.
In this evaluation biomass reduction is determined by visually rating the numbers and bulk of Hordeum leporinum in the treatment plots as compared to the numbers and bulk in the untreated plots. Seedhead suppression is measured by counting the seedheads of Hordeum leporinum in each of the treated plots and comparing to the number of seedheads in the untreated plot.
The test solutions are prepared by tank-mixing commercial formulations. All treatments also contain 0.5% v/v of an ethoxylated vegetable oil.
The treated plots are examined at intervals during the growing season and rated for percent biomass reduction and percent seedhead suppression. The data shown are an average of the replicates for that treatment. The Colby method of analysis is used to determine the resultant biological effect of the combination treatment as compared to the biological effect of each component when applied alone.

The test system of another test is Bromus diandrus. Description: Field plot evaluation of density reduction in Bromus diandrus (great bromegrass). As to conditions: 28 g/ha, weed count vs untreated plot. It counts as in vivo. As for the experimental part: as §1
All trials employ standard accepted weed science procedures. Applications are made to 2×10M plots with a propane gas-powered small plot boomspray applicator. Test design is a modified randomized complete block design with four replications. Applications are made at 2-6 weeks after the imidazolinone-tolerant crop is sown. […]
Using essentially the same procedure and test solutions described in Example 1, the following evaluation is carried out. In this evaluation, density reduction is measured by counting the Bromus diandrus weeds in the treated plots and comparing the count to that of the untreated plot. […]

Regarding `COCc1cnc(C2=NC(C)(C(C)C)C(=O)N2)c(C(=O)O)c1` (stereo not drawn) [imazamox, 2-(4-isopropyl-4-methyl-5-oxo-2-imidazolin-2-yl)-5-(methoxymethyl)-nicotinic acid], in the test with Hordeum leporinum, the “Seed Head Red. Observed” value amounted to 76.33% and the “Bio. Red. Observed” value was 80%. Moreover, the “Density Red. Obs.” value in the test with Bromus diandrus is listed as 98.96%.
In the same order, the values of `Cc1cnc(C2=NC(C)(C(C)C)C(=O)N2)c(C(=O)O)c1` (stereo not drawn) [imazapic, 2-(4-isopropyl-4-methyl-5-oxo-2-imidazolin-2-yl)-5-methylnicotinic acid] are 5.55%, 30% and −17.29%.
